Source: ChEMBL document CHEMBL6121000, “Corosolic acid and its derivatives targeting MCCC1 against insulin resistance and their hypoglycemic effect on type 2 diabetic mice” (Eur J Med Chem, 2025)
Active and inactive are the calls of the source. No cut-off for these calls is given here.

What was measured:
[1] = test system: HepG2; experiment: Inhibition of insulin resistance in human HepG2 cells assessed as decrease in GlcN-induced glucose production at 20 uM preincubated for 1 hr followed by GlcN treatment for 18 hrs and subsequent insulin stimulation for 20 mins; type: functional, cell-based; settings: time 19.33 hrs
[2] = (§1) Cytotoxicity against human HepG2 cells assessed as cell viability at 80 uM incubated for 24 hrs by CCK8 assay relative to control; type: toxicity, cell-based; settings: HepG2 cells, read-out: Activity
[3] = test system: HepG2; experiment: Lipid lowering activity in human HepG2 cells assessed as inhibition of FFA-induced triglyceride content at 20 uM preincubated for 1 hr followed by FFA treatment for 24 hrs relative to control; type: functional
[4] = test system: HepG2; experiment: as §1; type: toxicity, cell-based; settings: hepg2, 24 h, 80 µM
[5] = test system: Mus musculus; experiment: Hypoglycemic activity in HFD-fed STZ-induced diabetic C57BL/6J mouse model assessed as improvement in weight loss at 200 mg/kg, po administered everyday for 3 weeks; type: functional, organism-based
[6] = test system: HepG2; experiment: Cytotoxicity against human HepG2 cells assessed as cell survival at 10 to 40 uM by MTT assay; type: toxicity, cell-based; settings: hepg2, 40 µM, dose 10-40 µM

Row | SMILES | inhibition [1] | viability at 24 h, 80 µM [2] | also measured
1 | CCOC(=O)[C@H](CC(C)C)NC(=O)[C@]12CC[C@@H](C)[C@H](C)[C@H]1C1=CC[C@@H]3[C@@]4(C)C[C@@H](O)[C@H](O)C(C)(C)[C@@H]4CC[C@@]3(C)[C@]1(C)CC2 | Active | > 80% | 
2 | CC(=O)O[C@H]1CC[C@]2(C)[C@H]3CC=C4[C@@H]5[C@@H](C)[C@H](C)CC[C@]5(C(=O)OCc5ccccc5)CC[C@@]4(C)[C@]3(C)CC[C@H]2C1(C)C |  | > 80% | inhibition at 20 µM [3]: 58.5%
3 | C[C@H]1[C@H](C)CC[C@]2(C(=O)NCCCCCC(=O)O)CC[C@]3(C)C(=CC[C@@H]4[C@@]5(C)C[C@@H](O)[C@H](O)C(C)(C)[C@@H]5CC[C@]43C)[C@H]12 |  |  | Activity [4]: Non-toxic
4 | C[C@H]1[C@H](C)CC[C@]2(C(=O)NCCCN)CC[C@]3(C)C(=CC[C@@H]4[C@@]5(C)C[C@@H](O)[C@H](O)C(C)(C)[C@@H]5CC[C@]43C)[C@H]12 |  | > 80% | 
5 | COC(=O)CCCCNC(=O)[C@]12CC[C@@H](C)[C@H](C)[C@H]1C1=CC[C@@H]3[C@@]4(C)C[C@@H](O)[C@H](O)C(C)(C)[C@@H]4CC[C@@]3(C)[C@]1(C)CC2 | Active | > 80% | 
6 | CN(C)C(=N)NC(=N)N |  |  | Activity [5]: Active
7 | CC(=O)O[C@@H]1C[C@]2(C)[C@H]3CC=C4[C@@H]5[C@@H](C)[C@H](C)CC[C@]5(C(=O)NCCCNC(=O)OCC5c6ccccc6-c6ccccc65)CC[C@@]4(C)[C@]3(C)CC[C@H]2C(C)(C)[C@H]1OC(C)=O |  | > 80% | 
8 | C[C@H]1[C@H](C)CC[C@]2(C(=O)OCc3ccccc3)CC[C@]3(C)C(=CC[C@@H]4[C@@]5(C)CCC(=O)C(C)(C)[C@@H]5CC[C@]43C)[C@H]12 |  | > 80% | 
9 | C[C@H]1[C@H](C)CC[C@]2(C(=O)NC(=O)NC3CC3)CC[C@]3(C)C(=CC[C@@H]4[C@@]5(C)C[C@@H](O)[C@H](O)C(C)(C)[C@@H]5CC[C@]43C)[C@H]12 | Active | > 80% | 
10 | C[C@H]1[C@H](C)CC[C@]2(C(=O)O)CC[C@]3(C)C(=CC[C@@H]4[C@@]5(C)CC[C@H](O)C(C)(C)[C@@H]5CC[C@]43C)[C@H]12 [URSOLIC ACID] |  | 7.85% | 
11 | C[C@H]1[C@H](C)CC[C@]2(C(=O)On3nnc4ccccc43)CC[C@]3(C)C(=CC[C@@H]4[C@@]5(C)C[C@@H](O)[C@H](O)C(C)(C)[C@@H]5CC[C@]43C)[C@H]12 |  | > 80% | 
12 | CCOC(=O)[C@H](C)NC(=O)[C@]12CC[C@@H](C)[C@H](C)[C@H]1C1=CC[C@@H]3[C@@]4(C)C[C@@H](OC(C)=O)[C@H](OC(C)=O)C(C)(C)[C@@H]4CC[C@@]3(C)[C@]1(C)CC2 | Active | > 80% | inhibition at 20 µM [3]: 63.1%
13 | C[C@H]1[C@H](C)CC[C@]2(C(=O)NCCCNC(=O)CCCC[C@H]3SC[C@H]4NC(=O)N[C@H]43)CC[C@]3(C)C(=CC[C@@H]4[C@@]5(C)C[C@@H](O)[C@H](O)C(C)(C)[C@@H]5CC[C@]43C)[C@H]12 |  |  | Activity [6]: Non-toxic
14 | CCOC(=O)[C@H](C)NC(=O)[C@]12CC[C@@H](C)[C@H](C)[C@H]1C1=CC[C@@H]3[C@@]4(C)C[C@@H](O)[C@H](O)C(C)(C)[C@@H]4CC[C@@]3(C)[C@]1(C)CC2 |  | > 80% | 
15 | COC(=O)[C@H](Cc1ccccc1)NC(=O)[C@]12CC[C@@H](C)[C@H](C)[C@H]1C1=CC[C@@H]3[C@@]4(C)C[C@@H](O)[C@H](O)C(C)(C)[C@@H]4CC[C@@]3(C)[C@]1(C)CC2 | Active | > 80% | 
16 | CCOC(=O)[C@H](CS)NC(=O)[C@]12CC[C@@H](C)[C@H](C)[C@H]1C1=CC[C@@H]3[C@@]4(C)C[C@@H](O)[C@H](O)C(C)(C)[C@@H]4CC[C@@]3(C)[C@]1(C)CC2 | Active | > 80% | 
17 | CC(=O)O[C@@H]1C[C@]2(C)[C@H]3CC=C4[C@@H]5[C@@H](C)[C@H](C)CC[C@]5(C(=O)NCCCN)CC[C@@]4(C)[C@]3(C)CC[C@H]2C(C)(C)[C@H]1OC(C)=O | Active | 8.9% | 
18 | C[C@H]1[C@H](C)CC[C@]2(C(=O)NCCCNC(=O)c3ccccc3)CC[C@]3(C)C(=CC[C@@H]4[C@@]5(C)C[C@@H](O)[C@H](O)C(C)(C)[C@@H]5CC[C@]43C)[C@H]12 |  | > 80% | 
19 | CCCCC(=O)NCCCNC(=O)[C@]12CC[C@@H](C)[C@H](C)[C@H]1C1=CC[C@@H]3[C@@]4(C)C[C@@H](O)[C@H](O)C(C)(C)[C@@H]4CC[C@@]3(C)[C@]1(C)CC2 | Active | > 80% | 
20 | C[C@H]1[C@H](C)CC[C@]2(C(=O)OCc3ccccc3)CC[C@]3(C)C(=CC[C@@H]4[C@@]5(C)C[C@@H](O)[C@H](O)C(C)(C)[C@@H]5CC[C@]43C)[C@H]12 |  | 12.3% | 
21 | C[C@H]1[C@H](C)CC[C@]2(C(=O)OCc3ccccc3)CC[C@]3(C)C(=CC[C@@H]4[C@@]5(C)CC[C@H](O)C(C)(C)[C@@H]5CC[C@]43C)[C@H]12 | Active | > 80% | 
22 | CCOC(=O)CNC(=O)[C@]12CC[C@@H](C)[C@H](C)[C@H]1C1=CC[C@@H]3[C@@]4(C)C[C@@H](O)[C@H](O)C(C)(C)[C@@H]4CC[C@@]3(C)[C@]1(C)CC2 |  | > 80% | 
23 | CCOC(=O)[C@H](CO)NC(=O)[C@]12CC[C@@H](C)[C@H](C)[C@H]1C1=CC[C@@H]3[C@@]4(C)C[C@@H](O)[C@H](O)C(C)(C)[C@@H]4CC[C@@]3(C)[C@]1(C)CC2 | Active | > 80% | 
24 | C[C@H]1[C@H](C)CC[C@]2(C(=O)O[C@H]3O[C@H](CO)C(O)[C@@H](O)[C@H]3O)CC[C@]3(C)C(=CC[C@@H]4[C@@]5(C)C[C@@H](O)[C@H](O)C(C)(C)[C@@H]5CC[C@]43C)[C@H]12 (single isomer, unassigned) |  | 64.5% | 
25 | CC(=O)O[C@@H]1C[C@]2(C)[C@H]3CC=C4[C@@H]5[C@@H](C)[C@H](C)CC[C@]5(C(=O)O)CC[C@@]4(C)[C@]3(C)CC[C@H]2C(C)(C)[C@H]1OC(C)=O |  | 58.7% | 
26 | CC(=O)OC[C@H]1O[C@H](OC(=O)[C@]23CC[C@@H](C)[C@H](C)[C@H]2C2=CC[C@@H]4[C@@]5(C)C[C@@H](O)[C@H](O)C(C)(C)[C@@H]5CC[C@@]4(C)[C@]2(C)CC3)C(OC(C)=O)[C@H](OC(C)=O)C1OC(C)=O (single isomer, unassigned) | Active | > 80% | 
27 | COC(=O)C(Cc1ccc(OC)cc1)NC(=O)[C@]12CC[C@@H](C)[C@H](C)[C@H]1C1=CC[C@@H]3[C@@]4(C)C[C@@H](O)[C@H](O)C(C)(C)[C@@H]4CC[C@@]3(C)[C@]1(C)CC2 (stereo partly specified) | Active | > 80% | 
